Laboratory results taken from patent US20250026734A1 (priority 2021, published 2025).
pIC50: −log10 of the molar value.

Key:
SARS-CoV-2 (WK-521) = experiment: microbe, parasite or virus in culture; format: cell-based; conditions: Severe acute respiratory syndrome coronavirus 2, HEK-293T, 72 h; for pIC50: read-out: IC50 (concentration of agent which reduces viral production and replication by 50%); for IC90: read-out: IC90 (concentration of agent which reduces viral production and replication by 90%)
in vitro [1] = conditions: human
[2] = system: SARS-CoV (SARS-CoV-HKU-39849); experiment: microbe, parasite or virus in culture; format: cell-based; conditions: Severe acute respiratory syndrome coronavirus, HEK-293T
[3] = system: MERS-CoV (MERS-CoV-EMC/2012); experiment: microbe, parasite or virus in culture; format: cell-based; conditions: Middle East respiratory syndrome-related coronavirus, HEK-293T
in vitro [4] = conditions: African green monkey

Row | Structure (SMILES) | pIC50 (SARS-CoV-2 (WK-521)) | IC90 (SARS-CoV-2 (WK-521)) | CC50 (in vitro [1]) | pIC50 [2] | IC90 [2] | pIC50 [3] | IC90 [3] | CC50 (in vitro [4])
1 | CC(C)Cn1c(=O)c2ccc(NCCO)cc2c2cc(C(O)(C(F)(F)F)C(F)(F)F)ccc21 [NR-91] | 6.29 | 4 µM | > 20 µM |  |  |  |  | 
2 | CCCCn1c(=O)c2cc(NC(=O)[C@@H]3C[C@@H](O)CN3)ccc2c2cc(C(O)(C(F)(F)F)C(F)(F)F)ccc21 [NR-52] | 6.85 | 2.43 µM | 18.1 µM |  |  |  |  | 
3 | CCCCn1c(=O)c2ccc(NCCN)cc2c2cc(C(O)(C(F)(F)F)C(F)(F)F)ccc21 [NR-102] | 6.12 | 2.4 µM | 5.5 µM |  |  |  |  | 
4 | CCCCn1c(=O)c2ccc(NC(=O)C(C)N)c(F)c2c2cc(C(O)(C(F)(F)F)C(F)(F)F)ccc21 (centres unmarked) [NR-44] | 6.42 | 3.76 µM | 10.3 µM |  |  |  |  | 
5 | CCCCn1c(=O)c2ccc(NC(CO)CO)cc2c2cc(C(O)(C(F)(F)F)C(F)(F)F)ccc21 [NR-89] | 6.46 | 6.1 µM | > 20 µM | 5.32 | 20.2 µM | 5.17 | 19 µM | 
6 | CCCCn1c(=O)c2ccc(N)cc2c2cc(C(O)(C(F)(F)F)C(F)(F)F)ccc21 [NR-31-5] | 6.26 | 2.63 µM | > 20 µM |  |  |  |  | 
7 | CCCCn1c(=O)c2ccc(NCCCCCO)cc2c2cc(C(O)(C(F)(F)F)C(F)(F)F)ccc21 [NR-100] | 6.23 | > 10 µM | > 20 µM |  |  |  |  | 
8 | CCCCn1c(=O)c2ccc(NC(=O)CCO)cc2c2cc(C(O)(C(F)(F)F)C(F)(F)F)ccc21 [NR-38] | 7.24 | > 20 µM | > 20 µM |  |  |  |  | 
9 | CCCCn1c(=O)c2ccc(NCCN(C)C)cc2c2cc(C(O)(C(F)(F)F)C(F)(F)F)ccc21 [NR-105] | 5.83 | > 10 µM | 7.4 µM |  |  |  |  | 
10 | CCCCn1c(=O)c2ccc(NCCO)cc2c2cc(C(O)(C(F)(F)F)C(F)(F)F)ccc21 [NR-31] | 7.20 | 1.76 µM | > 20 µM | 6.13 | 6.24 µM | 5.67 | 5.96 µM | 17.6 µM
11 | CCCCn1c(=O)c2ccc(NC(C)=O)cc2c2cc(C(O)(C(F)(F)F)C(F)(F)F)ccc21 [TK-04] | 6.24 | 5.97 µM | 7.13 µM |  |  |  |  | 
12 | CCCCn1c(=O)c2cc(NC(=O)C(C)N)ccc2c2cc(C(O)(C(F)(F)F)C(F)(F)F)ccc21 (centres unmarked) [NR-50] | 6.19 | 4.6 µM | 12 µM |  |  |  |  | 
13 | CCCCn1c(=O)c2ccc(NCCCCO)cc2c2cc(C(O)(C(F)(F)F)C(F)(F)F)ccc21 [NR-99] | 5.89 | > 10 µM | > 20 µM |  |  |  |  | 
14 | CCCCn1c(=O)c2ccc(NC(=O)C(C)C)cc2c2cc(C(O)(C(F)(F)F)C(F)(F)F)ccc21 [NR-16] | 6.24 | 2.03 µM | 15.8 µM |  |  |  |  | 
15 | CCCCn1c(=O)c2ccc(NCCCO)cc2c2cc(C(O)(C(F)(F)F)C(F)(F)F)ccc21 [NR-98] | 5.94 | > 10 µM | > 20 µM |  |  |  |  | 
16 | CCCCn1c(=O)c2cc(F)c(NCc3ccc(O)cc3)cc2c2cc(C(O)(C(F)(F)F)C(F)(F)F)ccc21 [NR-55] | 6.82 | 6.79 µM | > 80 µM |  |  |  |  | 

Row | Structure (SMILES) | pIC50 (SARS-CoV-2 (WK-521)) | IC90 (SARS-CoV-2 (WK-521)) | CC50 (in vitro [1]) | pIC50 [2] | IC90 [2] | pIC50 [3] | IC90 [3] | CC50 (in vitro [4])
17 | CCCCn1c(=O)c2cc(F)c(NCCO)cc2c2cc(C(O)(C(F)(F)F)C(F)(F)F)ccc21 [NR-56] | 6.54 | 8.07 µM | 29.5 µM |  |  |  |  | 
18 | CCCCn1c(=O)c2ccc(NCC(N)=O)cc2c2cc(C(O)(C(F)(F)F)C(F)(F)F)ccc21 [NR-96] | 6.17 | 4 µM | > 20 µM |  |  |  |  | 
19 | CCCCn1c(=O)c2ccc(NCCC)cc2c2cc(C(O)(C(F)(F)F)C(F)(F)F)ccc21 [NR-103] | 5.63 | > 10 µM | > 20 µM |  |  |  |  | 
20 | CCCCn1c(=O)c2cc(NC(=O)NCCO)ccc2c2cc(C(O)(C(F)(F)F)C(F)(F)F)ccc21 [NR-72] | 6.21 | 2.29 µM | 9 µM |  |  |  |  | 
21 | CCCCn1c(=O)c2ccc(NC(=O)[C@H](N)CO)cc2c2cc(C(O)(C(F)(F)F)C(F)(F)F)ccc21 [NR-47] | 6.15 | 3.3 µM | 11.7 µM |  |  |  |  | 
22 | CCCCn1c(=O)c2ccc(NCC(O)CO)cc2c2cc(C(O)(C(F)(F)F)C(F)(F)F)ccc21 (centres unmarked) [NR-90] | 6.24 | 3.87 µM | > 20 µM | 5.62 | 14.2 µM | 5.42 | 13.6 µM | 
23 | CCCCn1c(=O)c2cc(F)c(NC3CCOC3)cc2c2cc(C(O)(C(F)(F)F)C(F)(F)F)ccc21 (centres unmarked) [NR-78] | 6.19 | 3.59 µM | 17.8 µM |  |  |  |  | 
24 | CCCCn1c(=O)c2ccc(NC(=O)CO)cc2c2cc(C(O)(C(F)(F)F)C(F)(F)F)ccc21 [NR-17] | 6.28 | 3.35 µM | > 20 µM |  |  |  |  | 
25 | CCCn1c(=O)c2ccc(NCCO)cc2c2cc(C(O)(C(F)(F)F)C(F)(F)F)ccc21 [NR-92] | 6.14 | 3.42 µM | > 20 µM |  |  |  |  | 
26 | CCCCn1c(=O)c2ccc(NC(=O)[C@H]3CC(O)CN3)cc2c2cc(C(O)(C(F)(F)F)C(F)(F)F)ccc21 (some centres unmarked) [NR-30] | 7.23 | 1.84 µM | 13.6 µM | 5.16 | 19.4 µM | 4.90 | 21.8 µM | 
27 | CCCCn1c(=O)c2cc(F)c(N)cc2c2cc(C(O)(C(F)(F)F)C(F)(F)F)ccc21 [NR-54] | 6.03 | 4.64 µM | 27.2 µM |  |  |  |  | 
28 | CCCCn1c(=O)c2ccc(C(CCO)CCO)cc2c2cc(C(O)(C(F)(F)F)C(F)(F)F)ccc21 [NR-101] | 6.27 | > 10 µM | > 20 µM |  |  |  |  | 
29 | CCCCn1c(=O)c2ccc(NC(=O)C(C)N)cc2c2cc(C(O)(C(F)(F)F)C(F)(F)F)ccc21 (centres unmarked) [NR-28] | 6.92 | 1.68 µM | 11.8 µM |  |  |  |  | 
30 | CCCCn1c(=O)c2cc(NC=O)ccc2c2cc(C(O)(C(F)(F)F)C(F)(F)F)ccc21 [NR-86] | 7.10 | 3.07 µM | 16.7 µM |  |  |  |  | 
31 | CCCCn1c(=O)c2ccc(N)c(SC)c2c2cc(C(O)(C(F)(F)F)C(F)(F)F)ccc21 [NR-87] | 6.07 | 4.9 µM | 18.2 µM |  |  |  |  | 
